Reference: patent publication US6686382B2, “Sulfonamides and derivatives thereof that modulate the activity of endothelin” (Encysive Pharmaceuticals Inc., priority 1999, dated 2004)
Counter-ions that a name gives are not always drawn.

Assays:
human ETA receptors = target: T1, human ETA receptors (Homo sapiens, UniProt P25101); test: Endothelin binding inhibition, Binding Test #1: inhibition of binding to ETA receptors (TE 671 cell membranes); settings: relative to N-(4-chloro-3-methyl-5-isoxazolyl)-2-{[3,4-(methylenedioxy)-6-methylphenyl)acetyl]-thiophene-3-sulfonamide (= 1.0)
T1 construct: endogenous in cells; host or cells: TE 671 cells (ATCC HTB 139), membrane preparation
T1 sequence (P25101 21-427): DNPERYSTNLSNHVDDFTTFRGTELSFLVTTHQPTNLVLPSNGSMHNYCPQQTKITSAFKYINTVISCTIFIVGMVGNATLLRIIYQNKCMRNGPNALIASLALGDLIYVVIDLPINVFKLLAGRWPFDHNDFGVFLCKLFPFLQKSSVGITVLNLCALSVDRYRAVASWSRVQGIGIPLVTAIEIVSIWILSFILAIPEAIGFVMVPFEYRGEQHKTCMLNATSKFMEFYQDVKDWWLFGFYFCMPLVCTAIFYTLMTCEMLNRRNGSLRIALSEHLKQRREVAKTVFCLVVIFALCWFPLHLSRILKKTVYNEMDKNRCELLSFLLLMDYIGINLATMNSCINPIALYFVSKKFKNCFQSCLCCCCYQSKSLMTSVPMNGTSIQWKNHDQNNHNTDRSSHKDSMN
Excerpt: Compounds that are potential endothelin antagonists are identified by testing their ability to compete with ^125I-labeled ET-1 for binding to human ETA receptors or ETB receptors present on isolated cell membranes. The effectiveness of the test compound as an antagonist or agonist of the biological tissue response of endothelin can also be assessed by measuring the effect on endothelin induced contraction of isolated rat thoracic aortic rings. The ability of the compounds to act as antagonists or agonists for ETB receptors can be assess by testing the ability of the compounds are to inhibit endothelin-1 induced prostacyclin release from cultured bovine aortic endothelial cells.
A. Endothelin Binding Inhibition—Binding Test #1: Inhibition of Binding to ETA Receptors
TE 671 cells (ATCC Accession No. HTB 139) express ETA receptors. These cells were grown to confluence in T-175 flasks. Cells from multiple flasks were collected by scraping, pooled and centrifugedfor 10 min at 190×g. The cells were resuspended in phosphate buffered saline (PBS) containing 10 mM EDTA using a Tenbroeck homogenizer. The suspension was centrifuged at 4° C. at 57,800×g for 15 min, the pellet was resuspended in 5 ml of buffer A (5 mM HEPES buffer, pH 7.4 containing aprotinin (100 KIU/ml)) and then frozen and thawed once. 5 ml of Buffer B (5 mM HEPES Buffer, pH 7.4 containing 10 mM MnCl2 and 0.001% deoxyribonuclease Type 1) was added, the suspension mixed by inversion and then incubated at 37° C. for 30 minutes. The mixture was centrifuged at 57,800×g as described above, the pellet washed twice with buffer A and then resuspended in buffer C (30 mM HEPES buffer, pH 7.4 containing aprotinin (100 KIU/ml) to give a final protein concentration of 2 mg/ml and stored at −70° C. until use.
The membrane suspension was diluted with binding buffer (30 mM HEPES buffer, pH 7.4 containing 150 mM NaCl, 5 mM MgCl2, 0.5% Bacitracin) to a concentration of 8 μg/50 μl. ^125I-endothelin-1 (3,000 cpm, […]) was added to 50 μL of either: (A) endothelin-1 (for non specific binding) to give a final concentration 80 nM); (B) binding buffer (for total binding); or (C) a test compound (final concentration 1 nM to 100 μM). The membrane suspension (50 μL), containing up to 8 μg of membrane protein, was added to each of (A), (B), or (C). Mixtures were shaken, and incubated at 4° C. for 16-18 hours, and then centrifuged at 4° C. for 25 min at 2,500×g. Alternatively, the incubation was conducted at 24° C. […] This, must be kept in mind when comparing IC50 concentrations among compounds provided herein.
The supernatant, containing unbound radioactivity, was decanted and the pellet counted on a Genesys multiwell gamma counter. The degree of inhibition of binding (D) was calculated according to the following equation: [formula]
Each test was generally performed in triplicate.

Structure (SMILES): Cc1cc(-c2ncco2)cc(C)c1NC(=O)c1sccc1S(=O)(=O)Nc1onc(C)c1Cl [Compound 52, 3-{[(4-chloro-3-methyl-5-isoxazolyl)amino]sulfonyl}-N-[2,6-dimethyl-4-(1,3-oxazol-2-yl)phenyl]-2-thiophenecarboxamide]
- ETA ACTIVITY (ETA antagonist activity relative to reference compound) (human ETA receptors): 1.1
- melting point: 205 to 207 °C

Structure (SMILES): CO/N=C(\C)c1cc(C)cc(C)c1NC(=O)c1sccc1S(=O)(=O)Nc1onc(C)c1Cl [Compound 22, 3-{[(4-chloro-3-methyl-5-isoxazolyl)amino]sulfonyl}-N-{2,4-dimethyl-6-[(methyloxy)ethanimidoyl]phenyl}-2-thiophene carboxamide]
- ETA ACTIVITY (ETA antagonist activity relative to reference compound) (human ETA receptors): 23.6
- melting point: 140 to 145 °C

Structure (SMILES): CCCS(=O)(=O)c1cc(C)cc(C)c1NC(=O)c1sccc1S(=O)(=O)Nc1onc(C)c1Cl [Compound 48, 3-{[(4-chloro-3-methyl-5-isoxazolyl)amino]sulfonyl)-N-[2,4-dimethyl-6-(propylsulfonyl)phenyl]-2-thiophenecarboxamide]
- melting point: 152 to 155 °C

Structure (SMILES): CC(=O)c1cc2c(cc1NC(=O)c1sccc1S(=O)(=O)Nc1onc(C)c1Cl)OCO2 [3-{[(4-chloro-3-methyl-5-isoxazolyl)amino]sulfonyl}-N-(2-acetyl-4,5-methylenedioxyphenyl)-2-thiophenecarboxamide]
- ETA ACTIVITY (ETA antagonist activity relative to reference compound) (human ETA receptors): 0.15

Structure (SMILES): Cc1cc(C)c(NC(=O)c2sccc2S(=O)(=O)Nc2onc(C)c2Cl)c(C(=O)N(C)CC(C)(C)C)c1 [Compound 40, 3-{[(4-chloro-3-methyl-5-isoxazolyl)amino]sulfonyl}-N-(2,4-dimethyl-6-{[methyl(2,2-dimethylpropyl)amino]carbonyl}phenyl)-2-thiophenecarboxamide]
- ETA ACTIVITY (ETA antagonist activity relative to reference compound) (human ETA receptors): 2.7
- melting point: 174 to 176 °C

Structure (SMILES): Cc1cc(C)c(CC(=O)c2sccc2S(=O)(=O)Nc2onc(C)c2Cl)c(C)c1 [3-{[(4-chloro-3-methyl-5-isoxazolyl)amino]sulfonyl}-2-(2,4,6-trimethylphenylacetyl)thiophene]
- ETA ACTIVITY (ETA antagonist activity relative to reference compound) (human ETA receptors): 6.4

Structure (SMILES): CC(=O)c1c(C)c(C)cc(C)c1NC(=O)c1sccc1S(=O)(=O)Nc1onc(C)c1Cl [Compound 30, N-(2-acetyl-3,4,6-trimethylphenyl)-3-{[(4-chloro-3-methyl-5-isoxazolyl)amino]sulfonyl}-2-thiophenecarboxamide]
- ETA ACTIVITY (ETA antagonist activity relative to reference compound) (human ETA receptors): 103.8
- melting point: 223 to 225 °C

Structure (SMILES): Cc1cc(C)c(NC(=O)c2sccc2S(=O)(=O)Nc2onc(C)c2Cl)c(C#N)c1C [Compound 32, 3-{[(4-chloro-3-methyl-5-isoxazolyl)amino]sulfonyl}-N-(2-cyano-3,4,6-trimethylphenyl)-2-thiophenecarboxamide]
- ETA ACTIVITY (ETA antagonist activity relative to reference compound) (human ETA receptors): 55.7

Structure (SMILES): Cc1cc(C)c(OS(=O)(=O)N(C)C)c(C)c1NC(=O)c1sccc1S(=O)(=O)Nc1onc(C)c1Cl [Compound 24, 3-{[(3-{[(4-chloro-3-methyl-5-isoxazolyl)amino]sulfonyl}-2-thiophenyl)carbonyl]amino}-2,4,6-trimethylphenyl-N,N-dimethylsulfamate]
- melting point: 169 to 174 °C

Structure (SMILES): Cc1cc(C)c(NC(=O)c2sccc2S(=O)(=O)Nc2onc(C)c2Cl)c(C(=O)O)c1 [3-{[(4-chloro-3-methyl-5-isoxazolyl)amino]sulfonyl}-N-(2-carboxyl-4,6-dimethylphenyl)-2-thiophenecarboxamide]
- ETA ACTIVITY (ETA antagonist activity relative to reference compound) (human ETA receptors): 0.05

Structure (SMILES): Cc1cc(C)c(NC(=O)c2sccc2S(=O)(=O)Nc2onc(C)c2C)c(C#N)c1C [Compound 9, N-(2-cyano-3,4,6-trimethylphenyl)-3-{[(3,4-dimethyl-5-isoxazolyl)amino]sulfonyl}-2-thiophenecarboxamide]
- ETA ACTIVITY (ETA antagonist activity relative to reference compound) (human ETA receptors): 18.6

Structure (SMILES): Cc1cc(C)c(NC(=O)c2sccc2S(=O)(=O)Nc2onc(C)c2Cl)c(C(N)=O)c1 [3-{[(4-chloro-3-methyl-5-isoxazolyl)amino]sulfonyl}-N-(2-carbamoyl-4,6-dimethylphenyl)-2-thiophenecarboxamide]
- ETA ACTIVITY (ETA antagonist activity relative to reference compound) (human ETA receptors): 1.04

Structure (SMILES): Cc1cc(C)c(NC(=O)c2sccc2S(=O)(=O)Nc2onc(C)c2Cl)c(C(C)O)c1 (stereo not drawn) [Compound 18, 3-{[(4-chloro-3-methyl-5-isoxazolyl)amino]sulfonyl}-N-[2-(1-hydroxyethyl)-4,6-dimethylphenyl]-2-thiophene carboxamide]
- ETA ACTIVITY (ETA antagonist activity relative to reference compound) (human ETA receptors): 26.4

Structure (SMILES): Cc1cc(C)c(OCC2CC2)c(C)c1NC(=O)c1sccc1S(=O)(=O)Nc1onc(C)c1Cl [Compound 26, 3-{[(4-chloro-3-methyl-5-isoxazolyl)amino]sulfonyl}-N-{3-[(cyclopropylmethyl)oxy]-2,4,6-trimethylphenyl}-2-thiophenecarboxamide]
- ETA ACTIVITY (ETA antagonist activity relative to reference compound) (human ETA receptors): 9.4
- melting point: 155 to 158 °C

Structure (SMILES): Cc1cc(C)c(NC(=O)c2sccc2S(=O)(=O)Nc2onc(C)c2Cl)c(C(C)O)c1 (stereo not drawn) (as salt: Na) [Compound 18, 3-{[(4-chloro-3-methyl-5-isoxazolyl)amino]sulfonyl}-N-[2-(1-hydroxyethyl)-4,6-dimethylphenyl]-2-thiophene carboxamide]
- melting point: 147 to 154 °C

Structure (SMILES): CCc1cc(C)cc(C)c1NC(=O)c1sccc1S(=O)(=O)Nc1onc(C)c1Cl [Compound 50, 3-{[(4-chloro-3-methyl-5-isoxazolyl)amino]sulfonyl}-N-(2-ethyl-4,6-dimethylphenyl)-2-thiophenecarboxamide]
- ETA ACTIVITY (ETA antagonist activity relative to reference compound) (human ETA receptors): 3.8
- melting point: 152 to 154 °C

Structure (SMILES): COC(=O)c1c(C)cc(C)c(NC(=O)c2sccc2S(=O)(=O)Nc2onc(C)c2Cl)c1C [3-{[(4-chloro-3-methyl-5-isoxazolyl)amino]sulfonyl}-N-(3-methoxycarbonyl-2,4,6-trimethylphenyl)-2-thiophenecarboxamide]
- ETA ACTIVITY (ETA antagonist activity relative to reference compound) (human ETA receptors): 4.7

Structure (SMILES): Cc1cc(C)c(NC(=O)c2sccc2S(=O)(=O)Nc2onc(C)c2Cl)c(C(=O)N(C)C)c1 [Compound 20, 3-{[(4-chloro-3-methyl-5-isoxazolyl)amino]sulfonyl}-N-{2-[(dimethylamino)carbonyl]-4,6-dimethylphenyl)-2-thiophene carboxamide]
- ETA ACTIVITY (ETA antagonist activity relative to reference compound) (human ETA receptors): 14.4

Structure (SMILES): Cc1nc(C)c(NC(=O)c2sccc2S(=O)(=O)Nc2onc(C)c2Cl)c(C)n1 [Compound 28, 3-{[(4-chloro-3-methyl-5-isoxazolyl)amino]sulfonyl}-N-(2,4,6-trimethyl-5-pyrimidinyl)-2-thiophenecarboxamide]
- ETA ACTIVITY (ETA antagonist activity relative to reference compound) (human ETA receptors): 2.0
- melting point: 170 to 175 °C

Structure (SMILES): CC(=O)c1cc2c(cc1NC(=O)c1sccc1S(=O)(=O)Nc1onc(C)c1C)OCO2 [3-{[(3,4-dimethyl-5-isoxazolyl)amino]sulfonyl}-N-(2-acetyl-4,5-methylenedioxyphenyl)-2-thiophenecarboxamide]
- ETA ACTIVITY (ETA antagonist activity relative to reference compound) (human ETA receptors): 0.05

Structure (SMILES): CCCc1c(O)c(C(C)=O)cc(C(C)=O)c1NC(=O)c1sccc1S(=O)(=O)Nc1onc(C)c1Cl [Compound 36]
- ETA ACTIVITY (ETA antagonist activity relative to reference compound) (human ETA receptors): 0.1
- melting point: 163 to 167 °C

Structure (SMILES): Cc1cc(C)c(NC(=O)c2sccc2S(=O)(=O)Nc2onc(C)c2Cl)c(C)c1 [3-{[(4-chloro-3-methyl-5-isoxazolyl)amino]sulfonyl}-N-(2,4,6-trimethylphenyl)-2-thiophenecarboxamide]
- ETA ACTIVITY (ETA antagonist activity relative to reference compound) (human ETA receptors): 2.4
